# Test results: patent US20240415914A1, “Water Dispersible Cannabinoid Compositions” (priority 2021, published 2024)
# Experiment: Stability of cannabinoid and Vitamin E components of Beverage 1 (AB White) stored at 8° C. and 21-25° C., LCMSMS over 570 days
# Assay type: physicochemical
# Settings: for Stability in AB White, 8° C. (content by LCMSMS): beverage stored at 8° C.; for Stability in AB White, 21-25° C. (content by LCMSMS): beverage stored at 21-25° C.
# Protocol: The LCMSMS was calibrated for 0-1000 ng/ml cannabinoids with the same resin material used in the preparation of the concentrates. At each time period, 100 ml of beverage was diluted with 10 ml of methanol and injected into the LCMSMS for analysis.
smiles,measurement,setting,value
"CCCCCc1cc2c(c(O)c1C(=O)O)[C@@H]1C=C(C)CC[C@H]1C(C)(C)O2 [D9 THCA, delta-9-tetrahydrocannabinolic acid]","Stability in AB White, 8° C. (content by LCMSMS)",day 0,0.950 µg/mL
same,"Stability in AB White, 8° C. (content by LCMSMS)",day 1,0.956 µg/mL
same,"Stability in AB White, 8° C. (content by LCMSMS)",day 2,0.954 µg/mL
same,"Stability in AB White, 8° C. (content by LCMSMS)",day 3,0.934 µg/mL
same,"Stability in AB White, 8° C. (content by LCMSMS)",day 5,0.956 µg/mL
same,"Stability in AB White, 8° C. (content by LCMSMS)",day 8,0.949 µg/mL
same,"Stability in AB White, 8° C. (content by LCMSMS)",day 9,0.937 µg/mL
same,"Stability in AB White, 8° C. (content by LCMSMS)",day 10,0.960 µg/mL
same,"Stability in AB White, 8° C. (content by LCMSMS)",day 11,0.929 µg/mL
same,"Stability in AB White, 8° C. (content by LCMSMS)",day 12,0.942 µg/mL
same,"Stability in AB White, 8° C. (content by LCMSMS)",day 15,0.944 µg/mL
same,"Stability in AB White, 8° C. (content by LCMSMS)",day 16,0.932 µg/mL
same,"Stability in AB White, 8° C. (content by LCMSMS)",day 17,0.951 µg/mL
same,"Stability in AB White, 8° C. (content by LCMSMS)",day 18,0.950 µg/mL
same,"Stability in AB White, 8° C. (content by LCMSMS)",day 19,0.959 µg/mL
same,"Stability in AB White, 8° C. (content by LCMSMS)",day 22,0.960 µg/mL
same,"Stability in AB White, 8° C. (content by LCMSMS)",day 23,0.931 µg/mL
same,"Stability in AB White, 8° C. (content by LCMSMS)",day 24,0.926 µg/mL
same,"Stability in AB White, 8° C. (content by LCMSMS)",day 25,0.957 µg/mL
same,"Stability in AB White, 8° C. (content by LCMSMS)",day 26,0.956 µg/mL
same,"Stability in AB White, 8° C. (content by LCMSMS)",day 29,0.939 µg/mL
same,"Stability in AB White, 8° C. (content by LCMSMS)",day 30,0.955 µg/mL
same,"Stability in AB White, 8° C. (content by LCMSMS)",day 60,0.914 µg/mL
same,"Stability in AB White, 8° C. (content by LCMSMS)",day 90,0.948 µg/mL
same,"Stability in AB White, 8° C. (content by LCMSMS)",day 120,0.932 µg/mL
same,"Stability in AB White, 8° C. (content by LCMSMS)",day 150,0.952 µg/mL
same,"Stability in AB White, 8° C. (content by LCMSMS)",day 180,0.941 µg/mL
same,"Stability in AB White, 8° C. (content by LCMSMS)",day 210,0.923 µg/mL
same,"Stability in AB White, 8° C. (content by LCMSMS)",day 240,0.932 µg/mL
same,"Stability in AB White, 8° C. (content by LCMSMS)",day 270,0.933 µg/mL
same,"Stability in AB White, 8° C. (content by LCMSMS)",day 300,0.939 µg/mL
same,"Stability in AB White, 8° C. (content by LCMSMS)",day 330,0.909 µg/mL
same,"Stability in AB White, 8° C. (content by LCMSMS)",day 360,0.913 µg/mL
same,"Stability in AB White, 8° C. (content by LCMSMS)",day 390,0.923 µg/mL
same,"Stability in AB White, 8° C. (content by LCMSMS)",day 420,0.916 µg/mL
same,"Stability in AB White, 8° C. (content by LCMSMS)",day 450,0.923 µg/mL
same,"Stability in AB White, 8° C. (content by LCMSMS)",day 480,0.905 µg/mL
same,"Stability in AB White, 8° C. (content by LCMSMS)",day 510,0.873 µg/mL
same,"Stability in AB White, 8° C. (content by LCMSMS)",day 540,0.877 µg/mL
same,"Stability in AB White, 8° C. (content by LCMSMS)",day 570,0.872 µg/mL
same,"Stability in AB White, 21-25° C. (content by LCMSMS)",day 0,0.950 µg/mL
same,"Stability in AB White, 21-25° C. (content by LCMSMS)",day 1,0.960 µg/mL
same,"Stability in AB White, 21-25° C. (content by LCMSMS)",day 2,0.938 µg/mL
same,"Stability in AB White, 21-25° C. (content by LCMSMS)",day 3,0.920 µg/mL
same,"Stability in AB White, 21-25° C. (content by LCMSMS)",day 5,0.958 µg/mL
same,"Stability in AB White, 21-25° C. (content by LCMSMS)",day 8,0.937 µg/mL
same,"Stability in AB White, 21-25° C. (content by LCMSMS)",day 9,0.926 µg/mL
same,"Stability in AB White, 21-25° C. (content by LCMSMS)",day 10,0.935 µg/mL
same,"Stability in AB White, 21-25° C. (content by LCMSMS)",day 11,0.949 µg/mL
same,"Stability in AB White, 21-25° C. (content by LCMSMS)",day 12,0.935 µg/mL
same,"Stability in AB White, 21-25° C. (content by LCMSMS)",day 15,0.948 µg/mL
same,"Stability in AB White, 21-25° C. (content by LCMSMS)",day 16,0.921 µg/mL
same,"Stability in AB White, 21-25° C. (content by LCMSMS)",day 17,0.919 µg/mL
same,"Stability in AB White, 21-25° C. (content by LCMSMS)",day 18,0.928 µg/mL
same,"Stability in AB White, 21-25° C. (content by LCMSMS)",day 19,0.917 µg/mL
same,"Stability in AB White, 21-25° C. (content by LCMSMS)",day 22,0.947 µg/mL
same,"Stability in AB White, 21-25° C. (content by LCMSMS)",day 23,0.924 µg/mL
same,"Stability in AB White, 21-25° C. (content by LCMSMS)",day 24,0.927 µg/mL
same,"Stability in AB White, 21-25° C. (content by LCMSMS)",day 25,0.948 µg/mL
same,"Stability in AB White, 21-25° C. (content by LCMSMS)",day 26,0.921 µg/mL
same,"Stability in AB White, 21-25° C. (content by LCMSMS)",day 29,0.922 µg/mL
same,"Stability in AB White, 21-25° C. (content by LCMSMS)",day 30,0.934 µg/mL
same,"Stability in AB White, 21-25° C. (content by LCMSMS)",day 60,0.896 µg/mL
same,"Stability in AB White, 21-25° C. (content by LCMSMS)",day 90,0.892 µg/mL
same,"Stability in AB White, 21-25° C. (content by LCMSMS)",day 120,0.894 µg/mL
same,"Stability in AB White, 21-25° C. (content by LCMSMS)",day 150,0.934 µg/mL
same,"Stability in AB White, 21-25° C. (content by LCMSMS)",day 180,0.945 µg/mL
same,"Stability in AB White, 21-25° C. (content by LCMSMS)",day 210,0.913 µg/mL
same,"Stability in AB White, 21-25° C. (content by LCMSMS)",day 240,0.892 µg/mL
same,"Stability in AB White, 21-25° C. (content by LCMSMS)",day 270,0.905 µg/mL
same,"Stability in AB White, 21-25° C. (content by LCMSMS)",day 300,0.888 µg/mL
same,"Stability in AB White, 21-25° C. (content by LCMSMS)",day 330,0.894 µg/mL
same,"Stability in AB White, 21-25° C. (content by LCMSMS)",day 360,0.925 µg/mL
same,"Stability in AB White, 21-25° C. (content by LCMSMS)",day 390,0.907 µg/mL
same,"Stability in AB White, 21-25° C. (content by LCMSMS)",day 420,0.909 µg/mL
same,"Stability in AB White, 21-25° C. (content by LCMSMS)",day 450,0.921 µg/mL
same,"Stability in AB White, 21-25° C. (content by LCMSMS)",day 480,0.873 µg/mL
same,"Stability in AB White, 21-25° C. (content by LCMSMS)",day 510,0.903 µg/mL
same,"Stability in AB White, 21-25° C. (content by LCMSMS)",day 540,0.877 µg/mL
same,"Stability in AB White, 21-25° C. (content by LCMSMS)",day 570,0.877 µg/mL
